The experiment concerns the target T1, human OX2R (Homo sapiens, UniProt O43614).
T1 construct: expressed in transfected cells; host or cells: CHO (Chinese hamster ovary) cells grown under G418 selection
T1 sequence (O43614 1-444): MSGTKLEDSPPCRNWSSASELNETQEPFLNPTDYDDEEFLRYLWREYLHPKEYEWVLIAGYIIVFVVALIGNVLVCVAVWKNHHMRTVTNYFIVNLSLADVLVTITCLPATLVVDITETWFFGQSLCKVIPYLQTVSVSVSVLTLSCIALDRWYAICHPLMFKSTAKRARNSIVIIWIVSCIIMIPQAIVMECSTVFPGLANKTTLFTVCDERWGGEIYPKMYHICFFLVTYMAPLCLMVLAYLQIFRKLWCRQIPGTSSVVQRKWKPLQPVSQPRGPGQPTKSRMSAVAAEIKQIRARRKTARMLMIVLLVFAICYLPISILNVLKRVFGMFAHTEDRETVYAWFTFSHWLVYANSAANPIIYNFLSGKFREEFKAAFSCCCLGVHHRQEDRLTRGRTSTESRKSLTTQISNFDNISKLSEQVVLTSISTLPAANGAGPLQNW
Nature of the experiment: IPOne (IP-1 accumulation) assay in CHO cells expressing human OX2R. The class given is cell-based. The note with it: for EC50: CHO cells expressing human OX2R, IP-One assay, 2 h incubation, four parameter logistic fit, read-out: OX2R Potency, EC50; for % of maximum agonist effect (relative to Orexin A): percent effect vs mean max effect of a reference compound at 1 uM (100% activity vs Orexin A), human OX2R. The gist of the method: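 Agonist EC50 values come from the inflection point of four-parameter logistic curves. Read-out is IP-1 accumulation detected with lysis buffer plus D2 and AB-cryptate reagents (HTRF), in CHO cells engineered to express human OX2R.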

The values that follow come from patent US12692262B2, “Substituted ureas as orexin receptor agonists” (Merck Sharp & Dohme LLC, priority 2020, dated 2026).

As for `CCN(C(=O)N[C@@H](CCC(F)(F)F)C(F)(F)F)[C@@H](c1cc(-c2cc(OC)c3[nH]cnc3c2)c(OC)cn1)C(F)(F)F` [Example 10-15, 1-ethyl-3-((S)-1,1,1,5,5,5-hexafluoropentan-2-yl)-1-((S)-2,2,2-trifluoro-1-(5-methoxy-4-(7-methoxy-1H-benzo[d]imidazol-5-yl)pyridin-2-yl)ethyl)urea], the EC50 was 6.4 nM and the “% of maximum agonist effect (relative to Orexin A)” value turned out to be 99.8%.
For `CCN(C(=O)N[C@@H](CCC(F)(F)F)C(F)(F)F)C(c1cc(-c2cn3ccnc3c(OC)n2)cc(OC)n1)C(F)(F)F` (stereo partly drawn) [Example 10-16, 1-ethyl-3-((S)-1,1,1,5,5,5-hexafluoropentan-2-yl)-1-(2,2,2-trifluoro-1-(6-methoxy-4-(8-methoxyimidazo[1,2-a]pyrazin-6-yl)pyridin-2-yl)ethyl)urea], the EC50 was determined as 35.2 nM and the “% of maximum agonist effect (relative to Orexin A)” value was found to be 97.9%.
Take `CCN(C(=O)N[C@@H](CCC(F)(F)F)C(F)(F)F)C(c1cc(-c2cn3ccnc3c(OC)n2)cnc1OC)C(F)(F)F` (stereo partly drawn) [Example 10-17, 1-ethyl-3-((S)-1,1,1,5,5,5-hexafluoropentan-2-yl)-1-(2,2,2-trifluoro-1-(2-methoxy-5-(8-methoxyimidazo[1,2-a]pyrazin-6-yl)pyridin-3-yl)ethyl)urea]: the concentration giving a half-maximal response (EC50) amounted to 88.8 nM and the “% of maximum agonist effect (relative to Orexin A)” value was determined as 100.5%.
As to `CCN(C(=O)N[C@@H](CCC(F)(F)F)C(F)(F)F)[C@H](C)c1cnc(C)c(-c2cn3ccnc3c(OC)n2)c1` [Example 10-18, 1-ethyl-3-((S)-1,1,1,5,5,5-hexafluoropentan-2-yl)-1-((R)-1-(5-(8-methoxyimidazo[1,2-a]pyrazin-6-yl)-6-methylpyridin-3-yl)ethyl)urea], the EC50 stood at 11.9 nM and the “% of maximum agonist effect (relative to Orexin A)” value worked out at 99.8%.
`CCN(C(=O)N[C@@H](CCC(C)(F)F)C(F)(F)F)[C@H](C)c1cnc(OC)c(-c2cn3ccnc3c(OC)n2)c1` [Example 10-19, 1-ethyl-1-((R)-1-(6-methoxy-5-(8-methoxyimidazo[1,2-a]pyrazin-6-yl)pyridin-3-yl)ethyl)-3-((S)-1,1,1,5,5-pentafluorohexan-2-yl)urea]: the EC50 turned out to be 0.8 nM and the “% of maximum agonist effect (relative to Orexin A)” value was determined as 100.6%.
On to `CCN(C(=O)N[C@@H](CCC(F)(F)F)C(F)(F)F)C(c1ccc(OC)c(-c2cn3ccnc3c(OC)n2)n1)C(F)(F)F` (stereo partly drawn) [Example 10-20, 1-ethyl-3-((S)-1,1,1,5,5,5-hexafluoropentan-2-yl)-1-(2,2,2-trifluoro-1-(5-methoxy-6-(8-methoxyimidazo[1,2-a]pyrazin-6-yl)pyridin-2-yl)ethyl)urea], for which the concentration giving a half-maximal response (EC50) stood at 0.7 nM and the “% of maximum agonist effect (relative to Orexin A)” value is 101.0%.
`CCN(C(=O)N[C@@H](CCC(F)(F)F)C(F)(F)F)[C@@H](c1cc(-c2cn3ccnc3c(OC)n2)c(C)cn1)C(F)(F)F` [Example 10-21, 1-ethyl-3-((S)-1,1,1,5,5,5-hexafluoropentan-2-yl)-1-((S)-2,2,2-trifluoro-1-(4-(8-methoxyimidazo[1,2-a]pyrazin-6-yl)-5-methylpyridin-2-yl)ethyl)urea]: the concentration for a half-maximal effect (EC50) stood at 1.6 nM and the “% of maximum agonist effect (relative to Orexin A)” value is on record as 100.9%.
Take `CCN(C(=O)N[C@@H](CCC(F)(F)F)C(F)(F)F)C(c1cncc(-c2cn3ccnc3c(OC)n2)c1)C(F)(F)F` (stereo partly drawn) [Example 10-22, 1-ethyl-3-((S)-1,1,1,5,5,5-hexafluoropentan-2-yl)-1-(2,2,2-trifluoro-1-(5-(8-methoxyimidazo[1,2-a]pyrazin-6-yl)pyridin-3-yl)ethyl)urea]: the EC50 turned out to be 76.9 nM and the “% of maximum agonist effect (relative to Orexin A)” value was determined as 99.4%.
For `CC[C@H](CCC(F)(F)F)NC(=O)N(CC)[C@H](C)c1cc2c(c(-c3ccc4nccn4c3)c1)OCC2` [Example 11-1, 1-ethyl-1-((R)-1-(7-(imidazo[1,2-a]pyridin-6-yl)-2,3-dihydrobenzofuran-5-yl)ethyl)-3-((R)-6,6,6-trifluorohexan-3-yl)urea], the EC50 was found to be 5.6 nM and the “% of maximum agonist effect (relative to Orexin A)” value is reported as 97.4%.
On the same counts, the results for `CC[C@H](CCC(F)(F)F)NC(=O)N(CC)[C@H](C)c1cc(-c2ccc3nccn3c2)c(OC)cc1F` [Example 11-2, 1-ethyl-1-((R)-1-(2-fluoro-5-(imidazo[1,2-a]pyridin-6-yl)-4-methoxyphenyl)ethyl)-3-((R)-6,6,6-trifluorohexan-3-yl)urea] are 80.5 nM and 98.5%.
On to `CC[C@H](CCC(F)(F)F)NC(=O)N(CC)[C@H](C)c1ccc(Br)c(-c2ccc3nccn3c2)c1` [Example 11-3, 1-((R)-1-(4-bromo-3-(imidazo[1,2-a]pyridin-6-yl)phenyl)ethyl)-1-ethyl-3-((R)-6,6,6-trifluorohexan-3-yl)urea], for which the EC50 was determined as 129 nM and the “% of maximum agonist effect (relative to Orexin A)” value is 91.8%.
Consider `CCN(C(=O)N[C@@H](CCC(F)(F)F)C(F)(F)F)[C@H](C)c1cnc(OC)c(-c2cn3ccnc3c(OC)n2)c1` [Example 11-4, 1-ethyl-3-((S)-1,1,1,5,5,5-hexafluoropentan-2-yl)-1-((R)-1-(6-methoxy-5-(8-methoxyimidazo[1,2-a]pyrazin-6-yl)pyridin-3-yl)ethyl)urea], for which the EC50 was determined as 0.7 nM and the “% of maximum agonist effect (relative to Orexin A)” value is 101.6%.
For the compound `CCN(C(=O)N[C@@H](CCC(F)(F)F)C(F)(F)F)[C@H](C)c1cc(-c2cc(OC)n3nccc3c2)c(OC)cn1` [Example 11-5, 1-ethyl-3-((S)-1,1,1,5,5,5-hexafluoropentan-2-yl)-1-((R)-1-(5-methoxy-4-(7-methoxypyrazolo[1,5-a]pyridin-5-yl)pyridin-2-yl)ethyl)urea], the concentration for a half-maximal effect (EC50) came out at 0.6 nM and the “% of maximum agonist effect (relative to Orexin A)” value is on record as 100.1%.
For `CCN(C(=O)N[C@@H](CCC(F)(F)F)C(F)(F)F)[C@H](C)c1cc(-c2cn3ccnc3c(OC)n2)c(OC)cn1` [Example 12-1, 1-ethyl-3-((S)-1,1,1,5,5,5-hexafluoropentan-2-yl)-1-((R)-1-(5-methoxy-4-(8-methoxyimidazo[1,2-a]pyrazin-6-yl)pyridin-2-yl)ethyl)urea], in that order: 0.6 nM and 100.1%.
For the compound `CCN(C(=O)N[C@@H](CCC(F)(F)F)C1CC1)[C@H](C)c1cnc(OC)c(-c2cn3ccnc3c(OC)n2)c1` [Example 12-2, 3-((S)-1-cyclopropyl-4,4,4-trifluorobutyl)-1-ethyl-1-((R)-1-(6-methoxy-5-(8-methoxyimidazo[1,2-a]pyrazin-6-yl)pyridin-3-yl)ethyl)urea], the concentration giving a half-maximal response (EC50) amounted to 1.2 nM and the “% of maximum agonist effect (relative to Orexin A)” value was 100.6%.
`CCN(C(=O)N[C@@H](CCC(F)(F)F)C(F)(F)F)C(C)c1ccnc(-c2cn3ccnc3c(OC)n2)c1` (stereo partly drawn) [Example 13-1, 1-ethyl-3-((S)-1,1,1,5,5,5-hexafluoropentan-2-yl)-1-(1-(2-(8-methoxyimidazo[1,2-a]pyrazin-6-yl)pyridin-4-yl)ethyl)urea]: the EC50 was 11.7 nM and the “% of maximum agonist effect (relative to Orexin A)” value is listed as 101.4%.
As for `CCN(C(=O)N[C@@H](CCC(F)(F)F)C(F)(F)F)C(C)c1cc(-c2cn3ccnc3c(OC)n2)ncn1` (stereo partly drawn) [Example 13-2, 1-ethyl-3-((S)-1,1,1,5,5,5-hexafluoropentan-2-yl)-1-(1-(6-(8-methoxyimidazo[1,2-a]pyrazin-6-yl)pyrimidin-4-yl)ethyl)urea], the 50% effective concentration (EC50) is 16.8 nM and the “% of maximum agonist effect (relative to Orexin A)” value is recorded as 101.4%.
For the compound `CCN(C(=O)N[C@@H](CCC(F)(F)F)C(F)(F)F)[C@H](C)c1cc(-c2cn3ccnc3c(OC)n2)ccn1` [Example 14-1, 1-ethyl-3-((S)-1,1,1,5,5,5-hexafluoropentan-2-yl)-1-((R)-1-(4-(8-methoxyimidazo[1,2-a]pyrazin-6-yl)pyridin-2-yl)ethyl)urea], the EC50 is 1.5 nM and the “% of maximum agonist effect (relative to Orexin A)” value worked out at 100.3%.
On to `CC[C@H](CCC(F)(F)F)NC(=O)N(CC)[C@H](C)c1ccc(Cl)c(-c2cc(OC)c3nccn3c2)c1` [Example 14-2, 1-((R)-1-(4-chloro-3-(8-methoxyimidazo[1,2-a]pyridin-6-yl)phenyl)ethyl)-1-ethyl-3-((R)-6,6,6-trifluorohexan-3-yl)urea], for which the half-maximal effective concentration (EC50) amounted to 2.6 nM and the “% of maximum agonist effect (relative to Orexin A)” value was 96.0%.
Turning to `CCN(C(=O)N[C@@H](CCC(F)(F)F)C(F)(F)F)C(C)c1cc(-c2cc(F)c3nccn3c2)c(OC)cn1` (stereo partly drawn) [Example 15-2, 1-ethyl-1-(1-(4-(8-fluoroimidazo[1,2-a]pyridin-6-yl)-5-methoxypyridin-2-yl)ethyl)-3-((S)-1,1,1,5,5,5-hexafluoropentan-2-yl)urea], the EC50 was 1 nM and the “% of maximum agonist effect (relative to Orexin A)” value is reported as 99.1%.
As to `CCN(C(=O)NC(CNS(=O)(=O)N(C)C)C(F)(F)F)[C@H](C)c1cccc(-c2cn3ccnc3c(OC)n2)c1` (stereo partly drawn) [Example 17, N-{3-[(dimethylsulfamoyl)amino]-1,1,1-trifluoropropan-2-yl}-N-ethyl-N-{(1R)-1-[3-(8-methoxyimidazo[1,2-a]pyrazin-6-yl)phenyl]ethyl}urea], the EC50 worked out at 0.7 nM and the “% of maximum agonist effect (relative to Orexin A)” value is on record as 101.8%.
